In one series the target is serotonin (S1) receptor. As to the kind of experiment: Serotonin (S1) receptor binding assay, [3H] serotonin. Set-up: species or system rats. Particulars: rat brain crude synaptosome fractions. How it is done: (§1) Effect of binding to dopamine (D2), serotonin (S1, S2) and adrenaline (α1) receptor (in vitro receptor binding assay):
(§2) Dopamine (D2), serotonin (S1, S2) and adrenaline (α1) receptor binding assays were carried out according to the methods of I. Creese et al. [Eur. J. Pharmacol., 46, 377 (1977)], S. J. Peroutka et al. [Mol. Pharmacol., 16, 687 (1979)], J. E. Leysen et al. [Mol. Pharmacol., 21, 301 (1982)], and D. C. U'Prichard et al. [Mol. Pharmacol., 13, 454 (1977)], respectively.
(§3) Crude synaptosome fractions prepared from some brain regions in rats were used as the receptor sources, and [^3 H] spiperone (D2), [^3 H] serotonin (S1), [^3 H] ketanserin (S2) and [^3 H] WB-4101 (α1) were used as the labelled ligands. The binding assay was performed by incubating aliquots of synaptosome fraction in buffer solution (final volume 1 ml) containing the receptor source and the labelled ligand in the presence of a test compound having various concentration thereof for a fixed time. The assay was terminated by rapid filtration through Whatman GF/B glass fiber filters attached to a cell-harvester (Brandel) and radioactivity on the filters was counted with a scintillation counter. Specific binding was calculated as a difference between the amount of radioactivity in the assay group and that in the control group which was separately measured likewise in the presence of an excess amount of an unlabelled ligand [spiperone (D2), serotonin (S1), methysergide (S2) and prazosin (α1)] instead of […]. The IC50 value of the test compounds (i.e. the concentration causing 50% inhibition of the labelled ligand specific binding) was determined by probit analysis.

Another series has as its target adrenaline (α1) receptor. The series can be described thus: Adrenaline (α1) receptor binding assay, [3H] WB-4101. Set-up: species or system rats. To be noted: rat brain crude synaptosome fractions. On the procedure: as §1, §2, §3
For series [1], the system named is cycloheximide-induced amnesia of passive avoidance response. As to the kind of experiment: Improving effect on cycloheximide-induced amnesia of passive avoidance response. It counts as in vivo, mice (Std-ddY strain). Particulars: cycloheximide 60 mg/kg s.c., retention trial at 24 hours, non-dosed animals=100%. The source says:
Improving effect on cycloheximide-induced amnesia of passive avoidance response:
Anti-amnesic effect of the test compounds was examined using mice given cycloheximide which is a known amnesia-inducing agent.
A group of 15-20 male mice (Std-ddY strain, 27-33 g) was subjected to training and retention trials for a passive avoidance task in a step-down apparatus (30×30×50 cm) with a grid floor and a wooden platform (4×4×4 cm) in a center of the floor. In the training trial, each mouse was first placed on the platform, and when the mouse stepped down on the grid floor, an electric shock (1 Hz, 0.5 sec, 60 VDC) was delivered to the feet for 15 seconds. Immediately after the training trial, cycloheximide (60 mg/kg, s.c.) and a test compound (i.p.) were administered. The retention trial was carried out 24 hours thereafter, and the time from placing again each mouse on the platform until stepping down on the grid floor (step-down latency) was measured. The step-down latency in the retention trial was markedly shortened by treatment of cycloheximide (amnesia). The effect of test compounds was assessed by % improvement (complete improvement to the latency level of non-dosed animals=100%).

In a further series the test system is mice. The series can be described thus: Acute toxicity. It counts as in vivo, mice (Std-ddY strain). Particulars: 200 mg/kg orally; 7 days observation; 5 male mice. How it is done: Experiment 8 Acute toxicity
A group of 5 male mice (Std-ddY strain, 25-30 g) was used. The test compound (200 mg/kg) was orally administered to the test animal in the form of a 0.5% tragacanth solution or suspension, and for 7 days after the administration of the test compound, the lethality of animals was observed.

In a further series the target is T1, dopamine (D2) receptor (Rattus norvegicus, UniProt P61169).
T1 construct: Crude synaptosome fractions prepared from some brain regions in rats were used as the receptor sources; from tissue
As to the kind of experiment: Dopamine (D2) receptor binding assay, [3H] spiperone. Particulars: rat brain crude synaptosome fractions. Set-up: species or system rats. On the procedure: as §1, §2, §3

Series [2] has as its system brain serotonin metabolite, 5-hydroxyindole-3-acetic acid (5-HIAA). The series can be described thus: Increasing effect on concentration of brain serotonin metabolite (5-HIAA). To be noted: Mus musculus, 2 h, two hours after treatment, 5-HIAA level of non-dosed animals=100%. It counts as in vivo, mice (Std-ddY strain). An excerpt: Increasing effect on concentration of brain serotonin metabolite:
A group of 5 male mice (Std-ddY strain, 25-30 g) was used for examining effect of the test compounds on concentration of a brain serotonin metabolite, 5-hydroxyindole-3-acetic acid (5-HIAA).
Mice were killed by decapitation two hours after the treatment with the test compounds. Brains were quickly taken out, homogenized in 1N formic acid-acetone solution, and centrifuged in a refrigerated ultracentrifuge. The supernatant was evaporated by blowing with N2 gas, and then, the residue was again dissolved in 0.01N acetic acid, and served for determining 5-HIAA concentration by high performance liquid chromatography with electrochemical detection. The effect of the test compounds on 5-HIAA concentration was shown as % of control (5-HIAA level of non-dosed animals=100%).

Series [3] relates to scopolamine-induced hypermotility. As to the kind of experiment: Antagonistic effect on scopolamine-induced hypermotility. Type of series: in vivo, mice (Std-ddY strain). To be noted: Mus musculus, po, read-out: Inhibitory ratio (% antagonism of scopolamine-induced hypermotility). On the procedure:
Antagonistic effect on scopolamine-induced hypermotility:
A test compound was orally administered to each mouse, and 90 minutes after the administration, each one test animal was placed within a test cage (25×35×30 cm). After 30 minutes, scopolamine hydrobromide (1 mg/kg) was intraperitoneally administered to the mice and then the motility was measured with Animex activity meter for 30 minutes. The effect of test compounds was expressed as % antagonism (complete antagonism to the motility level of non-dosed animals=100%).

In the next series the target is T2, serotonin (S2) receptor (Rattus norvegicus, UniProt P14842).
T2 construct: Crude synaptosome fractions prepared from some brain regions in rats were used as the receptor sources; from tissue
As to the kind of experiment: Serotonin (S2) receptor binding assay, [3H] ketanserin. Set-up: species or system rats. Particulars: rat brain crude synaptosome fractions. On the procedure: as §1, §2, §3

Series [4] relates to scopolamine-induced deficit of spontaneous alternation behavior. The series can be described thus: Improving effect on scopolamine-induced deficit of spontaneous alternation behavior (T-maze). It counts as in vivo, mice (Std-ddY strain). Particulars: scopolamine hydrobromide 1 mg/kg, non-dosed mice=100%. An excerpt:
Improving effect on scopolamine-induced deficit of spontaneous alternation behavior:
A group of 15-25 male mice (Std-ddY strain, 22-28 g) was used for evaluating effect of the test compounds on scopolamine-induced deficit of spontaneous alternation in a T-maze, which is a known animal model of memory impairment due to hypofunction of the cholinergic nervous system. The T-maze used consists of a stem and two arms which are 25 cm long, 5 cm wide and 10 cm high. The first 10 cm of the stem and last 10 cm of each arm are divided by sliding doors into start and goal boxes.
A test compound and scopolamine hydrobromide (1 mg/kg) were intraperitoneally administered to each mouse, and after 30 minutes a test of spontaneous alternation task in the T-maze was continuously repeated for 8 trials. Commonly, naive mice alternate each (right and left) goal box in turn, but scopolamine-treated animals tend to enter the same goal box repeatedly. The effect of the test compounds was expressed as % improvement (complete improvement to the alternation level of non-dosed mice=100%).

The test system of series [5] is reserpine-induced hypothermia. As to the kind of experiment: Anti-reserpine effect (reserpine-induced hypothermia). It counts as in vivo, mice (Std-ddY strain). To be noted: 100 mg/kg orally; reserpine 5 mg/kg s.c.; rectal temperature at 4 hours; complete inhibition=100%. How it is done: A group of 5 male mice (Std-ddY strain, 22-25 g) was used for examining the antagonistic effect of the test compounds on reserpine-induced hypothermia, which is known as a screening method for the antidepressant drug.
Reserpine (5 mg/kg) was subcutaneously administered to the mice and further a test compound was orally administered thereto. Four hours after the administration, rectal temperature of the mice was measured. The effect of the test compounds was estimated by % inhibition (complete inhibition to the hypothermia by reserpine in non-dosed animals=100%).

The conditions of series [6]: U.S. Pat. No. 3,915,976; U.S. Pat. No. 3,305,553; cited from earlier work.
The conditions of series [7]: Chem. Pharm. Bull., 31, 2254-2261 (1983); cited from earlier work.
The mark [8] stands for this setting: 30 mg/kg, orally, scopolamine hydrobromide 1 mg/kg i.p., complete antagonism to motility level of non-dosed animals=100%.

Read-outs that look alike come from different tables or passages of the source.

The values that follow come from US5185338A, “Medicament for treating cerebral insufficiency diseases, novel 2-(1-piperazinyl)-4-phenylcycloalkanopyrimidine derivatives, and process for the production thereof” (Dainippon Pharmaceutical Co., Ltd., priority 1989, dated 1993).

Broadly, the IC50 is the concentration at which inhibition is half-maximal.

T1 sequence (P61169 whole entry): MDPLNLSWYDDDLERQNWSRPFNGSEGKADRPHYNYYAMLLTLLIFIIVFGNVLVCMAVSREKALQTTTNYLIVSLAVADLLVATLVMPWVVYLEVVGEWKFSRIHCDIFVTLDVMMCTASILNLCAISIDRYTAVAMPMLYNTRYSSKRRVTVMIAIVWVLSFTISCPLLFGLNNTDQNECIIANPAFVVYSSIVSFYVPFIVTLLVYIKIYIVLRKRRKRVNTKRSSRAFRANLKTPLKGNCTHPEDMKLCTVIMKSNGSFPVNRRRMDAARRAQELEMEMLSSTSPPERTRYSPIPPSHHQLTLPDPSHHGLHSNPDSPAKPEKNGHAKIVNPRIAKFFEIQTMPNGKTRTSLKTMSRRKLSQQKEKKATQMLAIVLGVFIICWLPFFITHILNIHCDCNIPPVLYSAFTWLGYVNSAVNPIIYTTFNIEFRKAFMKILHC
T2 sequence (P14842 whole entry): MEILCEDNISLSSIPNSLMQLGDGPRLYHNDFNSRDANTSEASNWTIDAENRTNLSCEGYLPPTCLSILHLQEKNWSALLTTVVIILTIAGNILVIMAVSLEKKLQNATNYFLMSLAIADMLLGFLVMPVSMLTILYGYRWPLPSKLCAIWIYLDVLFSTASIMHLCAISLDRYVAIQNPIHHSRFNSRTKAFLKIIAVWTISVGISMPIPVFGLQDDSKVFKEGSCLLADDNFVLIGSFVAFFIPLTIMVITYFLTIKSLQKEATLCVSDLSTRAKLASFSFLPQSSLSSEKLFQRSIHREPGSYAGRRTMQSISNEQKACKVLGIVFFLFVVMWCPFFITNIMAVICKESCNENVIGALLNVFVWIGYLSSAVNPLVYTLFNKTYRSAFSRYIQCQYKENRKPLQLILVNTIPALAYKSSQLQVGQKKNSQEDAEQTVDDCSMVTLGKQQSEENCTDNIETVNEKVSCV

As to `Fc1ccc(-c2nc(N3CCNCC3)nc3c2CCCCC3)cc1` [Ex. 2, 2-(1-piperazinyl)-4-(4-fluorophenyl)-6,7,8,9-tetrahydro-5H-cycloheptapyrimidine], the IC50 on serotonin (S1) receptor turned out to be 3000 nM; on adrenaline (α1) receptor it was 3400 nM; at dopamine (D2) receptor, 750 nM; at serotonin (S2) receptor it was 9.6 nM. Moreover, the figures for the “Improvement of cycloheximide-induced amnesia (step-down latency)” value (shortened to “Improvement … (step-down latency)”) in series [1] (0.5 mg/kg i.p.) and in [1] (2.0 mg/kg i.p.) were 93.7% and 72.8%, respectively. The Lethality of animals entry in the series on mice is “no animal was died”. Moreover, in series [2], the response vs control in vivo at 100 mg/kg came out at 135%. Further, the inhibition in vivo at 30 mg/kg in series [3] was determined as 69.2%. Moreover, the “Improvement of scopolamine-induced deficit of spontaneous alternation” value (“Improvement … of spontaneous alternation” for short) in series [4] (2.0 mg/kg i.p.) was 39.1%.

For `CN1CCN(c2nc3c(c(-c4ccc(F)cc4)n2)CCCC3)CC1` [Ex. 28], the IC50 on dopamine (D2) receptor amounted to 350 nM; at serotonin (S2) receptor, 87 nM. Further, the response vs control in vivo at 100 mg/kg in [2] was determined as 156%. For the same molecule, the inhibition in vivo at 30 mg/kg in series [3] (setting [8]) was found to be 96.4%. In addition, the “Inhibitory ratio (% inhibition of reserpine-induced hypothermia)” value in [5] stood at 37%.

Regarding `CN1CCN(c2nc3c(c(-c4ccccc4)n2)CCCCC3)CC1` [6,7,8,9-tetrahydro-2-(4-methyl-1-piperazinyl)-4-phenyl-5H-cyclohepta[d]pyrimidine], the Anti-inflammatory activity entry in series [6] is “have anti-inflammatory activity”.

Regarding `c1ccc(-c2nc(N3CCNCC3)nc3c2CCCCCC3)cc1` [Ex. 9, 2-(1-Piperazinyl)-4-phenyl-5,6,7,8,9,10-hexahydrocyclooctapyrimidine], the “Improvement … (step-down latency)” value in series [1] (0.5 mg/kg i.p.) turned out to be 85.8%. For the same molecule, the Lethality of animals entry with mice is on record as “no animal was died”. Besides, the inhibition in vivo at 10 mg/kg in [3] (10 mg/kg, orally, scopolamine hydrobromide 1 mg/kg i.p., complete antagonism to motility level of non-dosed animals=100%) was determined as 60.4%. Also, the “Improvement … of spontaneous alternation” value in series [4] (2.0 mg/kg i.p.) is 36.7%.

Take `CN1CCN(c2nc3c(c(-c4ccccc4)n2)CCC3)CC1` [6,7-dihydro-2-(4-methyl-1-piperazinyl)-4-phenyl-5H-cyclopenta[d]pyrimidine]: the Anti-inflammatory activity entry in series [6] is listed as “have anti-inflammatory activity”.

On to `Fc1ccc(-c2nc(N3CCNCC3)nc3c2CCCCCC3)cc1` [Ex. 10, 2-(1-Piperazinyl)-4-(4-fluorophenyl)-5,6,7,8,9,10-hexahydrocyclooctapyrimidine], for which the IC50 at serotonin (S1) receptor worked out at 1300 nM; at adrenaline (α1) receptor it was 1200 nM; at dopamine (D2) receptor, 130 nM; on serotonin (S2) receptor it was 19 nM. The “Improvement … (step-down latency)” value in series [1] (0.5 mg/kg i.p.) was 67.1%. Besides, the inhibition in vivo at 3 mg/kg in series [3] stood at 50.6%. Further, the “Improvement … of spontaneous alternation” value in series [4] (2.0 mg/kg i.p.) is reported as 63.0%.

As to `c1ccc(-c2nc(N3CCNCC3)nc3c2CCCCC3)cc1` [Ex. 7, 2-(1-Piperazinyl)-4-phenyl-6,7,8,9-tetrahydro-5H-cycloheptapyrimidine], the “Improvement … (step-down latency)” value in series [1] (0.5 mg/kg i.p.) amounted to 70.4%. Moreover, the results for the IC50 on dopamine (D2) receptor and on serotonin (S2) receptor were 2000 nM and 38 nM, respectively. The inhibition in vivo at 30 mg/kg in series [3] (setting [8]) was 78.2%. In [4] (10.0 mg/kg i.p.), the “Improvement … of spontaneous alternation” value is 44.0%.

With `c1ccc(CN2CCN(c3nc4c(c(-c5ccccc5)n3)CCCC4)CC2)cc1` [4-phenyl-2-(4-benzyl-1-piperazinyl)-5,6,7,8-tetrahydroquinazoline], the Hypoglycemic activity entry in series [7] is reported as “weak hypoglycemic activity”.

Regarding `c1ccc(-c2nc(N3CCNCC3)nc3c2CCCC3)cc1` [4-phenyl-2-(1-piperazinyl)-5,6,7,8-tetrahydroquinazoline], in series [7], the Hypoglycemic activity result is on record as “weak hypoglycemic activity”.
